Columns and labels:
[1] = test system: primary umbilical cord-derived mesenchymal stem cells; assay: Stem cell proliferation (CCK, absorbance 450 nm) after pretreatment; assay type: cell-based; details: 10 ng/mL interferon-γ pretreatment one week; 24 h culture, CCK 4 h
Experimental: (§1) In a culture medium [high glucose DMEM (Gibco, Cat no. 11995-065); 10% fetal bovine serum (HyClone), 1% MEM non-essential amino acids solution (100×) (Gibco, Cat no. 11140-050)] containing 20 nM of exendin-4, primary umbilical cord-derived mesenchymal stem cells (ATCC No. PCS-500-010; Lot No. 63822428) were cultured for one week.
(§2) In a culture medium [high glucose DMEM (Gibco, Cat no. 11995-065); 10% fetal bovine serum (HyClone), 1% MEM non-essential amino acids solution (100×) (Gibco, Cat no. 11140-050)] containing 10 nM of PMA, primary umbilical cord-derived mesenchymal stem cells (ATCC No. PCS-500-010; Lot No. 63822428) were cultured for one week.
(§3) In a culture medium [high glucose DMEM (Gibco, Cat no. 11995-065); 10% fetal bovine serum (HyClone), 1% MEM non-essential amino acids solution (100×) (Gibco, Cat no. 11140-050)] containing 10 ng/mL interferon-γ, primary umbilical cord-derived mesenchymal stem cells (ATCC No. PCS-500-010; Lot No. 63822428) were cultured for one week.
(§4) In a culture medium [high glucose DMEM (Gibco, Cat no. 11995-065); 10% fetal bovine serum (HyClone), 1% MEM non-essential amino acids solution (100×) (Gibco, Cat no. 11140-050)] containing 10 μM of tetrandrine, primary umbilical cord-derived mesenchymal stem cells (ATCC No. PCS-500-010; Lot No. 63822428) were cultured for one week.
In a culture medium [high glucose DMEM (Gibco, Cat no. 11995-065); 10% fetal bovine serum (HyClone), 1% MEM non-essential amino acids solution (100×) (Gibco, Cat no. 11140-050)] containing 10 μg/mL hyaluronic acid, primary umbilical cord-derived mesenchymal stem cells (ATCC No. PCS-500-010; Lot No. 63822428) were cultured for one week.
In a culture medium [high glucose DMEM (Gibco, Cat no. 11995-065); 10% fetal bovine serum (HyClone), 1% MEM non-essential amino acids solution (100×) (Gibco, Cat no. 11140-050)] containing 30 nM of substance P, primary umbilical cord-derived mesenchymal stem cells (ATCC No. PCS-500-010; Lot No. 63822428) were cultured for one week.
In a culture medium [high glucose DMEM (Gibco, Cat no. 11995-065); 10% fetal bovine serum (HyClone), 1% MEM non-essential amino acids solution (100×) (Gibco, Cat no. 11140-050)] containing 10 nM of resveratrol, primary umbilical cord-derived mesenchymal stem cells (ATCC No. PCS-500-010; Lot No. 63822428) were cultured for one week.
In a culture medium [high glucose DMEM (Gibco, Cat no. 11995-065); 10% fetal bovine serum (HyClone), 1% MEM non-essential amino acids solution (100×) (Gibco, Cat no. 11140-050)] containing 10 μM of lanifibranor, primary umbilical cord-derived mesenchymal stem cells (ATCC No. PCS-500-010; Lot No. 63822428) were cultured for one week.
(§5) Mesenchymal stem cells and the exendin-4-pretreated mesenchymal stem cells of the Example were each seeded at a density of 3,000 cells/well into 96-well plates containing 100 μL of a culture medium [high glucose DMEM (Gibco, Cat no. 11995-065), 10% fetal bovine serum (HyClone), 1% MEM non-essential amino acids solution (100×) (Gibco, Cat no. 11140-050)] per well and cultured for 24 hours in a CO2 incubator. Then, CCK solution (10 μL/well) was added, and incubation was continued for 4 hours in the CO2 incubator, followed by reading absorbance at a wavelength of 450 nm (420-480 nm) to determine proliferation.
as §5, with “PMA-pretreated” for “exendin-4-pretreated”, “proliferation. […]” for “proliferation.”

[2] = test system: primary umbilical cord-derived mesenchymal stem cells; assay: Number of exosomes by nanoparticle tracking assay (NanoSight NS300); assay type: cell-based; details: 10 ng/mL interferon-γ pretreatment one week
Experimental: as §1
After completion of culturing, the mesenchymal stem cells pretreated with exendin-4 were washed and additionally cultured for 72 hours in a culture medium supplemented with 10% fetal bovine serum (FBS) free of exosomes. The reason of employing exosome-free FBS was to prevent FBS-derived exosomes other than those secreted from the cells from being incorporated because generally used FBS contained a large amount of exosomes derived from bovine serum.
After 72 hours of culturing, the culture medium in which the pretreated mesenchymal stem cells were cultured was taken and centrifuged at 300×g for 10 min to remove residual cells and cell debris. The supernatant was filtered through a 0.22 μm filter, followed by centrifugation at 10,000×g and 4° C. for 70 min in a high-speed centrifuge. The supernatant thus obtained was subjected again to ultracentrifugation at 100,000×g and 4° C. for 90 min. The exosomes obtained as a pellet were diluted in PBS (phosphate buffered saline) before use in the following experiments.
as §2
After completion of culturing, the mesenchymal stem cells pretreated with PMA were washed and additionally cultured for 72 hours in a culture medium supplemented with 10% fetal bovine serum (FBS) free of exosomes. The reason of employing exosome-free FBS was to prevent FBS-derived exosomes other than those secreted from the cells from being incorporated because generally used FBS contained a large amount of exosomes derived from bovine serum.
as §3
After completion of culturing, the mesenchymal stem cells pretreated with interferon-γ were washed and additionally cultured for 72 hours in a culture medium supplemented with 10% fetal bovine serum (FBS) free of exosomes. The reason of employing exosome-free FBS was to prevent FBS-derived exosomes other than those secreted from the cells from being incorporated because generally used FBS contained a large amount of exosomes derived from bovine serum.
as §4
After completion of culturing, the mesenchymal stem cells pretreated with tetrandrine were washed and additionally cultured for 72 hours in a culture medium supplemented with 10% fetal bovine serum (FBS) free of exosomes. The reason of employing exosome-free FBS was to prevent FBS-derived exosomes other than those secreted from the cells from being incorporated because generally used FBS contained a large amount of exosomes derived from bovine serum. […]

interferon-γ [IFNγ MSC-Exo = exosomes of IFNγ-treated mesenchymal stem cells]
increase in proliferation relative to non-treated mesenchymal stem cells [1]: about 242%
proliferation ratio relative to non-treated mesenchymal stem cells (1) [1]: 2.42
fold more exosomes than non-treated mesenchymal stem cells [2]: about 6.7 fold
No. of exosome particles, yield per 10^6 cells ([2]; then 72 h exosome-free FBS medium, non-treated 2.3): 15.4 10^9
